Results reported in ChEMBL document CHEMBL3046799, “Synthesis and in vivo anticancer and antiangiogenic effects of novel thioxothiazolidin-4-one derivatives against transplantable mouse tumor” (2010).
Activity calls are given as the source filed them. No cut-off for these calls is given here.

Assays:
EAT [1] = assay: Antiangiogenic activity in Mus musculus (mouse) EAT xenografted in Mus musculus (mouse) assessed as reduction of vascularization at 100 mg/kg, ip administered day 7 to 11 post tumor implantation measured on day 12 relative to control; assay type: functional, organism-based; design: dose 100 mg/kg
[2] = (§1) Antitumor activity against Mus musculus (mouse) EAT xenografted in Mus musculus (mouse) assessed as decrease in tumor volume at 100 mg/kg, ip administered day 7 to 11 post tumor implantation measured on day 12 (reference value: 7.6 +/- 0.9 ml); assay type: functional; conditions: route intraperitoneal
EAT [3] = assay: Antitumor activity against Mus musculus (mouse) EAT xenografted in Mus musculus (mouse) assessed as decrease in body weight at 100 mg/kg, ip administered day 7 to 11 post tumor implantation measured on day 12 relative to control
[4] = Antitumor activity against Mus musculus (mouse) EAT xenografted in Mus musculus (mouse) assessed as increase in life span at 100 mg/kg, ip administered day 7 to 11 post tumor implantation measured up to 28 days relative to control; assay type: functional; conditions: route intraperitoneal
EAT [5] = assay: as §1; assay type: functional

| SMILES | Activity (EAT [1]) | Activity [2] [mL] | Activity (EAT [3]) | Activity [4] [%] | Activity (EAT [5]) |
| --- | --- | --- | --- | --- | --- |
| Cc1nc(-c2ccc(NC(=O)CN3C(=O)/C(=C/c4ccc(-c5ccc(Cl)cc5)o4)SC3=S)cc2)no1 | Active | 5.2 | Active | 43.75 | – |
| CCCCNC(=O)CN1C(=O)/C(=C/c2ccc(-c3ccc(Cl)cc3)o2)SC1=S | Active | – | Active | 12.5 | – |
| O=C(CN1C(=O)/C(=C/c2ccc(-c3ccc(Cl)cc3)o2)SC1=S)N1CCN(c2ccccc2F)CC1 | Active | – | Active | 31.25 | Active |
| COC(=O)C(Cc1ccc(O)cc1)NC(=O)CN1C(=O)/C(=C/c2ccc(-c3ccc(Cl)cc3)o2)SC1=S (configuration not stated) | Active | – | Active | 25 | Active |
| COc1ccc(Cn2nc(C3CC3)cc2NC(=O)CN2C(=O)/C(=C/c3ccc(-c4ccc(Cl)cc4)o3)SC2=S)cc1 | Active | 4.8 | Active | 56.25 | – |
| O=C(CN1C(=O)/C(=C/c2ccc(-c3ccc(Cl)cc3)o2)SC1=S)Nc1ccon1 | Active | – | Active | 18.25 | Active |
| COc1ccc(CCNC(=O)CN2C(=O)/C(=C/c3ccc(-c4ccc(Cl)cc4)o3)SC2=S)cc1 | Active | 5.7 | Active | 37.5 | – |
